Experimental data reported in PubChem BioAssay (NCI).
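In this assay, cells in 96-well plates receive the compound at five concentrations for 48 hours. Endpoints are linearly interpolated between the surrounding concentrations. GI50 = concentration required for 50% inhibition of growth. At the TGI there is no net growth.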

Key:
Experiment in all cases: NCI-60 cell line screen, 48 h
OVCAR-8 ovarian = tested on: OVCAR-8 ovarian
IGROV1 ovarian = tested on: IGROV1 ovarian
K-562 leukemia = tested on: K-562 leukemia
SW-620 colon = tested on: SW-620 colon
MOLT-4 leukemia = tested on: MOLT-4 leukemia
SN12C renal = tested on: SN12C renal
SF-539 CNS = tested on: SF-539 CNS
A549 NSCLC = tested on: A549 NSCLC
OVCAR-3 ovarian = tested on: OVCAR-3 ovarian
HT29 colon = tested on: HT29 colon

Row | Compound | GI50 (OVCAR-8 ovarian) | TGI (OVCAR-8 ovarian) | GI50 (IGROV1 ovarian) | TGI (IGROV1 ovarian) | GI50 (K-562 leukemia) | TGI (K-562 leukemia) | GI50 (SW-620 colon) | TGI (SW-620 colon) | GI50 (MOLT-4 leukemia) | TGI (MOLT-4 leukemia) | GI50 (SN12C renal) | TGI (SN12C renal) | GI50 (SF-539 CNS) | TGI (SF-539 CNS) | GI50 (A549 NSCLC) | TGI (A549 NSCLC) | GI50 (OVCAR-3 ovarian) | TGI (OVCAR-3 ovarian) | GI50 (HT29 colon) | TGI (HT29 colon)
1 | Cc1ncc(C(=O)Nc2ccc(CN3CCN(C)CC3)c(C(F)(F)F)c2)cc1C#Cc1c(N)ncc2ccc(C#N)cc12 | 4.77 µM | 21.2 µM | 0.111 µM | 4 µM | 0.005 µM | 5.3 µM | 0.661 µM | 10.3 µM | 1.03 µM | 19.4 µM | 1.16 µM | 17.9 µM | 1.14 µM | 8.06 µM | 2.82 µM | 14.4 µM | 1.57 µM | 8.54 µM | 0.0293 µM | 7.74 µM
2 | CCOP1(=O)OCC2OC(n3cnc4c(N)ncnc43)C(O)C2O1 (stereo not given) |  | > 100 µM |  | > 100 µM |  | > 100 µM |  | > 100 µM |  | > 100 µM |  | > 100 µM |  | > 100 µM |  | > 100 µM |  | > 100 µM |  | > 100 µM
3 | CCc1cc(C(N)=O)ccc1-n1nc(C(C)C)c2c(-n3cnc(-c4cnn(C)c4)c3)ccnc21 | 3.72 µM | > 100 µM | 4.15 µM | > 100 µM | 0.867 µM | > 100 µM | 0.536 µM | > 100 µM | 0.955 µM | > 100 µM | 0.761 µM | > 100 µM | 3.08 µM | > 100 µM | 2.18 µM | > 100 µM | 2.37 µM | > 100 µM | 0.474 µM | > 100 µM
4 | COC(=O)C1=CC(=O)C(C(=O)Nc2ccc(OC)cc2)C(c2ccccc2)O1 (stereo not given) |  | 96.8 µM |  | 51 µM |  | > 100 µM |  | > 100 µM |  | > 100 µM |  | > 89.1 µM |  | 40.3 µM |  | > 72.9 µM |  | 58.8 µM |  | > 100 µM
5 | O=P(O)(O)OC1C(OP(=O)(O)O)C(OP(=O)(O)O)C(OP(=O)(O)O)C(OP(=O)(O)O)C1OP(=O)(O)O (stereo not given) | > 2000 µM | > 2000 µM | > 2000 µM | > 2000 µM | > 2000 µM | > 2000 µM | > 2000 µM | > 2000 µM | > 1510 µM | > 2000 µM | > 2000 µM | > 2000 µM | > 2000 µM | > 2000 µM | > 2000 µM | > 2000 µM | > 2000 µM | > 2000 µM | > 2000 µM | > 2000 µM
6 | CCN(CC)CCN(C)CC(C)(C)C(=O)/C=C/c1ccccc1 |  | 43.2 µM |  | 36.5 µM |  | > 100 µM |  | 24.2 µM |  | 30.5 µM |  | 22.7 µM |  | 19 µM |  | 47.2 µM |  | 26.2 µM |  | 24.9 µM
7 | Cn1ccnc1CCc1ccc(F)cc1F |  | > 100 µM |  | > 100 µM |  | > 100 µM |  | > 100 µM |  | > 100 µM |  | > 100 µM |  | > 100 µM |  | > 100 µM |  | > 100 µM |  | > 100 µM
8 | COc1ccc(C2SC(N)=Nc3c2c(C)nn3C(=O)c2ccncc2)cc1 (stereo not given) |  | > 100 µM |  | > 100 µM |  | > 100 µM |  | > 100 µM |  | > 100 µM |  | > 100 µM |  | > 100 µM |  | > 100 µM |  | > 100 µM |  | > 100 µM
9 | COc1ccccc1/C=C1\COc2ccc(O)c(O)c2C1=O | 2.38 µM | > 100 µM | 1.46 µM | 4.21 µM | 0.671 µM | 14.1 µM | 1.48 µM | 4.2 µM | 1.79 µM | 19.1 µM | 1.48 µM | 5.31 µM | 1.52 µM | 3.35 µM | 2.95 µM | > 100 µM | 0.834 µM | 6.68 µM | 2.77 µM | 7.78 µM
10 | CC1(CCCC2(C)CCNC2=O)OCCO1 (stereo not given) |  | > 10 µM |  | > 10 µM |  | > 10 µM |  | > 10 µM |  | > 10 µM |  | > 10 µM |  | > 10 µM |  | > 10 µM |  | > 10 µM |  | > 10 µM
11 | COc1ccc(C(=O)/C=C/c2ccc(Cl)cc2)cc1S(N)(=O)=O | 3.55 µM | 10.2 µM | 2.67 µM | 8.34 µM | 0.568 µM | > 100 µM | 1.76 µM | 3.85 µM | 2.93 µM | 9.16 µM | 2.72 µM | 8.4 µM | 1.6 µM | 3.3 µM | 2.69 µM | 8.15 µM | 2.04 µM | 4.45 µM | 3.27 µM | 10.5 µM
12 | CN(C)C1(C#N)CCC2(CC1)OCCO2 |  | > 100 µM |  | > 100 µM |  | > 100 µM |  | > 100 µM |  | > 100 µM |  | > 100 µM |  | > 100 µM |  | > 100 µM |  | > 100 µM |  | > 100 µM
13 | CC(=O)OCC1OC(n2cc(F)c(=O)[nH]c2=O)C(OC(C)=O)C1OC(C)=O (stereo not given) |  | > 100 µM |  | > 100 µM |  | > 100 µM |  | > 100 µM |  | > 77.7 µM |  | > 100 µM |  | 52.1 µM |  | > 100 µM |  | 91.8 µM |  | > 100 µM
14 | COC(=O)C(=O)C(C#N)c1cccc2ccccc12 (stereo not given) |  | > 100 µM |  | > 100 µM |  | > 100 µM |  | > 100 µM |  | > 100 µM |  | > 100 µM |  | > 100 µM |  | > 100 µM |  | > 100 µM |  | > 100 µM
15 | COc1ccc(CN2CCc3c(Cl)nc(N)nc3C2=O)c(OC)c1 | 26.9 µM | > 100 µM | 7.56 µM | 26.9 µM | 2.46 µM | 37.7 µM | 13.6 µM | 28.1 µM | 2.46 µM | 34.6 µM | 14.9 µM | 31.5 µM | 15.8 µM | 31.7 µM | 47.2 µM | > 100 µM | 15.4 µM | 29.8 µM | 15.2 µM | 29.1 µM
16 | O=c1c(Cl)nsnc1Cl |  | > 91.6 µM |  | 32.4 µM |  | 3.58 µM |  | 31.5 µM |  | 4.09 µM |  | 48.4 µM |  | 28.1 µM |  | 65.4 µM |  | 17.1 µM |  | 60.2 µM
17 | N#Cc1c([N+](=O)[O-])cc(C(F)(F)F)cc1[N+](=O)[O-] |  | 4.36 µM |  | 20.8 µM |  | 5.08 µM |  | 8.77 µM |  | 4.95 µM |  | 27.3 µM |  | 11 µM |  | 37.6 µM |  | 30.9 µM |  | 9.36 µM
